Measured values: ChEMBL document CHEMBL1201862, “PubChem BioAssay data set” (2004)
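Five concentrations, 48 hours, 96-well plates. GI50 = concentration required for 50% inhibition of growth.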 Active and inactive are the calls of the source. Rule as the data show it: active = GI50 up to about 1.1 µM and inactive = higher.

Assays:
Assay in all cases: inhibition of tumour cell growth, NCI panel, 48 h
[1] = test system: PC-3
[2] = test system: OVCAR-4
[3] = test system: ACHN
[4] = test system: UACC-257
[5] = test system: HCT-116
[6] = test system: MDA-MB-231
[7] = test system: MDA-MB-435
[8] = test system: A498
[9] = test system: OVCAR-5
[10] = test system: Hs-578T
[11] = test system: SK-MEL-2
[12] = test system: SK-MEL-28
[13] = test system: NCI-H23
[14] = test system: KM12
[15] = test system: HT-29
[16] = test system: A549
[17] = test system: HCC 2998
[18] = test system: SK-OV-3
[19] = test system: NCI-H460
[20] = test system: LOX IMVI
[21] = test system: NCI/ADR-RES
[22] = test system: SF-539
[23] = test system: CAKI-1
[24] = test system: NCI-H226
[25] = test system: TK-10
[26] = test system: OVCAR-8
[27] = test system: HOP-92
[28] = test system: SN12C
[29] = test system: U-251
[30] = test system: HCT-15
[31] = test system: RPMI-8226
[32] = test system: SK-MEL-5
[33] = test system: T47D
[34] = test system: CCRF-CEM
[35] = test system: HOP-62
[36] = test system: 786-0
[37] = test system: COLO 205
[38] = test system: Malme-3M
[39] = test system: M14
[40] = test system: SNB-19
[41] = test system: SNB-75
[42] = test system: SW-620
[43] = test system: SR
[44] = test system: BT-549
[45] = test system: HL-60
[46] = test system: OVCAR-3
[47] = test system: MCF7
[48] = test system: RXF 393
[49] = test system: UO-31
[50] = test system: SF-268
[51] = test system: IGROV-1
[52] = test system: EKVX
[53] = test system: K562
[54] = test system: UACC-62
[55] = test system: MDA-N
[56] = test system: SF-295
[57] = test system: DU-145
[58] = test system: NCI-H522
[59] = test system: MOLT-4

Measured: GI50

CCn1ncc(Oc2c(Cl)cc(N)cc2Cl)c(Cl)c1=O
inactive: [1] 35.9 µM | [2] 54 µM | [3] 57.9 µM | [4] 31.6 µM | [5] 30.4 µM | [6] 54.6 µM | [7] 29.1 µM | [8] 47.3 µM | [9] 43.9 µM | [10] 22.5 µM | [11] 34.6 µM | [12] 51.3 µM | [13] 30.5 µM | [14] 34.8 µM | [15] 25.3 µM | [16] 30.5 µM | [17] 34.7 µM | [18] 31.3 µM | [19] 32.2 µM | [20] 32.9 µM | [21] 31 µM | [22] 31.6 µM | [23] 35.1 µM | [24] 40.3 µM | [25] 47.2 µM | [26] 56.5 µM | [27] 73.6 µM | [28] 79.3 µM | [29] 34.1 µM | [31] 31.6 µM | [32] 24 µM | [33] 50.2 µM | [34] 83 µM | [35] 44.9 µM | [36] 41.5 µM | [37] 22.7 µM | [38] 32.9 µM | [39] 30.1 µM | [40] 33.4 µM | [41] 51.5 µM | [42] 37.2 µM | [43] 21.5 µM | [44] 25.6 µM | [45] 34.2 µM | [46] 17.2 µM | [47] 38.7 µM | [48] 29 µM | [49] 47.4 µM | [50] 31 µM | [51] 42.3 µM | [52] 34.9 µM | [53] 35.1 µM | [54] 39.5 µM | [55] 29.9 µM | [56] 29 µM | [57] 60.8 µM
27.8 µM: [30]

O=c1c2cc(I)ccc2nc(SCc2n[nH]c(=S)o2)n1Cc1ccccc1
17.3 µM: [30]
inactive: [1] 15.7 µM | [2] 18.1 µM | [3] 15.3 µM | [4] 18.1 µM | [5] 16 µM | [6] 17.3 µM | [7] 19.3 µM | [8] 18.6 µM | [9] 24.8 µM | [10] 20.6 µM | [11] 15.6 µM | [12] 17.5 µM | [13] 16.3 µM | [14] 16.9 µM | [15] 22.3 µM | [16] 20.4 µM | [17] 18.8 µM | [18] 23.4 µM | [19] 19.1 µM | [20] 15.7 µM | [21] 19.1 µM | [22] 16.1 µM | [23] 6.25 µM | [24] 11.1 µM | [25] 21 µM | [26] 19.1 µM | [27] 14.3 µM | [58] 14.2 µM | [28] 14.1 µM | [29] 17.6 µM | [31] 16.3 µM | [32] 13.2 µM | [33] 14.8 µM | [34] 18.4 µM | [35] 19.1 µM | [36] 16.7 µM | [37] 10.6 µM | [38] 17.9 µM | [39] 20.5 µM | [40] 22.3 µM | [41] 4.78 µM | [42] 19.7 µM | [43] 20.5 µM | [44] 18.9 µM | [45] 4.71 µM | [46] 15.2 µM | [59] 20.7 µM | [47] 15.9 µM | [50] 17.5 µM | [51] 16.6 µM | [52] 19.3 µM | [53] 14.4 µM | [54] 12.5 µM | [55] 17.3 µM | [56] 17.3 µM | [57] 16.3 µM
active: [48] < 0.01 µM | [49] 0.741 µM

COC(=O)C(=O)C(C(=O)C(=O)Nc1ccccc1C(N)=O)c1nc2ccc(Cl)cc2nc1O (centres undefined)
> 100 µM: [30]
inactive: [1] > 100 µM | [2] > 100 µM | [3] > 100 µM | [4] > 100 µM | [5] > 100 µM | [6] > 100 µM | [7] > 100 µM | [8] > 100 µM | [9] > 100 µM | [10] 46.5 µM | [11] > 100 µM | [12] > 100 µM | [13] > 100 µM | [14] > 100 µM | [15] > 100 µM | [16] > 100 µM | [17] > 100 µM | [18] > 100 µM | [19] > 100 µM | [20] > 100 µM | [21] > 100 µM | [22] > 100 µM | [23] 82.8 µM | [24] > 100 µM | [26] > 100 µM | [27] > 100 µM | [28] > 100 µM | [29] > 100 µM | [31] > 100 µM | [32] > 100 µM | [33] > 100 µM | [34] > 100 µM | [36] > 100 µM | [37] > 100 µM | [39] > 100 µM | [40] > 100 µM | [41] 33.7 µM | [42] > 100 µM | [43] > 100 µM | [44] > 100 µM | [45] > 100 µM | [46] > 100 µM | [59] > 100 µM | [47] > 100 µM | [48] > 100 µM | [49] > 100 µM | [50] > 100 µM | [53] > 100 µM | [54] > 100 µM | [55] > 100 µM | [56] > 100 µM | [57] > 100 µM

CSc1c(C(=O)Nc2ccc(Cl)cc2)c(N)nn1-c1ccccc1
> 100 µM: [30]
inactive: [1] > 100 µM | [3] 78.7 µM | [4] > 100 µM | [5] > 100 µM | [6] 40.8 µM | [7] > 100 µM | [8] > 35.3 µM | [9] > 100 µM | [10] > 28.2 µM | [11] > 100 µM | [12] > 100 µM | [13] > 100 µM | [14] > 100 µM | [15] > 100 µM | [16] > 24.5 µM | [17] > 100 µM | [18] 19.6 µM | [19] > 59.2 µM | [20] > 100 µM | [21] > 58.7 µM | [22] > 100 µM | [23] > 100 µM | [24] > 100 µM | [25] > 38.9 µM | [26] 21.1 µM | [27] > 100 µM | [58] > 100 µM | [28] > 100 µM | [29] 61.5 µM | [31] > 100 µM | [32] > 100 µM | [33] > 100 µM | [34] > 100 µM | [35] 80 µM | [36] 9.75 µM | [37] > 100 µM | [38] > 100 µM | [39] > 100 µM | [40] > 100 µM | [41] 21.6 µM | [42] > 100 µM | [43] > 100 µM | [44] > 100 µM | [45] > 100 µM | [46] > 100 µM | [59] > 100 µM | [47] > 100 µM | [48] 22.7 µM | [49] > 44.8 µM | [50] > 100 µM | [51] > 100 µM | [52] > 100 µM | [53] > 100 µM | [54] > 100 µM | [55] > 100 µM | [56] > 100 µM | [57] > 100 µM

Cc1nn(-c2ccccc2)c2c1C(c1ccc(Cl)cc1)NC(=S)N2 (centres undefined)
inactive: [1] 18.9 µM | [2] 54.5 µM | [3] 20.7 µM | [4] 36.6 µM | [5] 20 µM | [6] 16.5 µM | [7] 21.5 µM | [8] 23.1 µM | [9] 27.5 µM | [10] 29 µM | [11] 17.5 µM | [13] 18.9 µM | [14] 23.1 µM | [15] 30.5 µM | [16] 24.6 µM | [18] 22.9 µM | [19] 23 µM | [20] 16.3 µM | [21] 24.3 µM | [22] 18.5 µM | [23] 27.2 µM | [24] 25.9 µM | [25] 18.7 µM | [26] 22.5 µM | [27] 7.18 µM | [58] 14 µM | [28] 19.1 µM | [29] 19.5 µM | [31] 19.1 µM | [32] 20.3 µM | [33] > 100 µM | [34] 20.9 µM | [35] 16.1 µM | [36] 15.6 µM | [37] 17.2 µM | [38] 28.2 µM | [39] 21.9 µM | [40] 28.6 µM | [41] 48.5 µM | [42] 23 µM | [43] 36.6 µM | [44] 25.9 µM | [45] 31.9 µM | [46] 32.4 µM | [59] 38.6 µM | [47] 28.4 µM | [48] 15.7 µM | [49] 15 µM | [50] 25.8 µM | [51] 12.6 µM | [52] 25.8 µM | [53] 36.1 µM | [54] 22.3 µM | [55] 29.4 µM | [56] 24.5 µM | [57] 88.9 µM
17.5 µM: [30]
